Assay results: patent US8796280B2, “2,3-disubstituted pyrazinesulfonamides as CRTH2 inhibitors” (Merck Serono, S.A., priority 2005, dated 2014)

Key:
CRTH2 [1] = molecular target: T1, CRTH2 (Homo sapiens (Human), UniProt Q9Y5Y4); test: Radioligand binding assay ([3H]PGD2 displacement, hCRTH2 HEK293 (EBNA) cell membranes); conditions: 1.5 nM [3H]PGD2, 10 μg hCRTH2 HEK293 (EBNA) membrane protein, 60 min room temperature; test concentration not given
Text: Human CRTH2 cDNA was amplified by PCR using a human urinary bladder cDNA library as a template and specific primers containing HindIII and BamHI restriction sites for cloning into the pCEP4 vector (Invitrogen). The vector construction is described in detail in Sawyer et al., Br. J. Pharmocol 2002, 137, 1163-72. The nucleotide sequence of the cloned cDNA was identical the previously reported hCRTH2 sequence (Nagata et al, 1999, J. Immunol. 162, 1278-1286).
HEK293 (EBNA) cells were transfected with the pCEP4-hCRTH2 construct using the calcium phosphate technique. Cells were maintained in culture at 37° C. in an atmosphere of 5% CO2 in Dulbecco's modified Eagle's F12 medium (Invitrogen), containing 10% heat-inactivated foetal calf serum (TerraCell International, Canada), 2 mM Glutamine, 100 units/ml of penicillin and 100 μg/ml streptomycin (Invitrogen). 48 hours after the transfection, cells were grown in presence of 300 μg/ml of Hygromycin B (Invitrogen) for 4 weeks and antibiotic resistant cells were amplified for cell membrane preparation.
Adherent HEK293 (EBNA) cells expressing hCRTH2 were cultured in 225 cm^2 cell culture flasks (Corning, USA) in 30 ml of medium. After two rinses of phosphate buffered saline (PBS), cells were harvested in 10 ml of PBS containing 1 mM EDTA, centrifuged at 500×g for 5 min at 4° C. and frozen at −80° C. The pellet was re-suspended in 50 mM Tris-HCl, pH 7.4, 2 mM EDTA, 250 mM Sucrose, containing protease inhibitor cocktail tablets, (Complete EDTA-free, Roche, Germany) and incubated 30 min at 4° C. Cells were disrupted by nitrogen cavitation (Parr Instruments, USA) at 4° C. (800 p.s.i. for 30 min), and centrifuged at 500×g for 10 min at 4° C. Pellet containing nuclei and cellular debris was discarded and supernatant was centrifuged 60 min at 4° C. at 45000×g. Membrane pellet was re-suspended in storage buffer (10 mM HEPES/KOH pH 7.4, 1 mM EDTA, 250 mM sucrose, protease inhibitor cocktail tablets) using Dounce homogenization and frozen in liquid nitrogen, and stored at −80° C.
(§1) The inhibitory activity can be investigated by a radioligand binding assay (Sawyer et al., Br. J. Pharmocol 2002, 137, 1163-72). The radioligand binding assay was performed at room temperature in binding buffer (10 mM HEPES/KOH pH […], with protease inhibitor cocktail tablets), containing 1.5 nM [^3H]PGD2 (Amersham, 156 Cie/mmol), and 10 μg of hCRTH2 HEK293 (EBNA) cell membrane protein in a final volume of 100 μl in 96 well plates (Corning, USA). Non-specific binding was determined in the presence of 1 μM PGD2 (Cayman, USA). Competing pyrazine sulfonamides were diluted in dimethylsulphoxide so that the total volume of dimethylsulfoxide was kept constant at 1% dimethylsulphoxide (Me2SO). 10 μl of the pyrazine sulfonamides were added. Incubation (60 min at room temperature) was terminated by rapid filtration through 96 wells hydrophobic GF/C Unifilter plates (Whatman, USA). Filters were washed twice with 250 μl of Tris-HCl pH 7.4, 10 mM MnCl2, and residual radioligand bound to the filters was mixed to 100 μl of liquid scintillation cocktail (Optiphase Supermix, Perkin Elmer, USA) and binding activity was determined by counting residual radioligand using a 1450 Micro-beta scintillation counter (Wallac, UK).

CRTH2 [2] = molecular target: T1, CRTH2; test: Determination of Ki, equilibrium competition binding against [3H]PGD2; conditions: competition against [3H]PGD2; average of at least three independent dose response experiments; Ki calculated from IC50
Experimental: as §1
Ki values were determined by equilibrium competition binding experiments against [^3H]PGD2. Ki values were calculated from the formula below and represent the average of at least three independent dose response experiments. The Ki values give the ligand concentrations necessary to inhibit 50% of the binding of 3[H]PGD2 to CRTH2. Ki=IC50/(1+[Concentration of Ligand]/Kd)]
All experiments were performed in 96 well plates, in a final volume of 100 μl according to the above described filtration assay. The concentration of membranes and 3[H]PGD2, as well as the positive and negative controls were identical to the conditions described above.

T1 sequence (Q9Y5Y4 whole entry): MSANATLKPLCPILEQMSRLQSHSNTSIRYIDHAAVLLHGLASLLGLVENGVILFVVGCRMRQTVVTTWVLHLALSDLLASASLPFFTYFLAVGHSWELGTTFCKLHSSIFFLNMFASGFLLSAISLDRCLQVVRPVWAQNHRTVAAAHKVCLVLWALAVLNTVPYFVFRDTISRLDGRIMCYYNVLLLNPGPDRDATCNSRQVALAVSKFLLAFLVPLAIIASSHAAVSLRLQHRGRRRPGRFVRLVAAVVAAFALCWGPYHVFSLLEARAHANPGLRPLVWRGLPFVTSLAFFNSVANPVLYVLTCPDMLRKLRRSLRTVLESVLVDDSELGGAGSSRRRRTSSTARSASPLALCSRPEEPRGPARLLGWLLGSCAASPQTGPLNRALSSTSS

| SMILES | Inhibition hCRTH2 [%] (CRTH2 [1]) | Ki (CRTH2 [2]) |
| --- | --- | --- |
| O=S(=O)(Nc1nccnc1-c1ccc(Cn2ccc3ccccc32)cc1)c1ccccc1Cl [Compound 6, 2-chloro-N-{3-[4-(1H-indol-1-ylmethyl)phenyl]pyrazin-2-yl}benzene-sulfonamide] | 81.5% | 2.12 µM |
| CN(Cc1ccc(-c2nccnc2NS(=O)(=O)c2ccccc2Cl)cc1)c1ccccc1F [Compound 42, 2-Chloro-N-[3-(4-{[(2-fluoro-phenyl)-methyl-amino]-methyl}-phenyl)-pyrazin-2-yl]-benzenesulfonamide] |  | 3.9 µM |
| CCN(Cc1ccc(-c2nccnc2NS(=O)(=O)c2ccccc2Cl)cc1)c1ccccn1 [Compound 45, 2-Chloro-N-(3-{4-[(ethyl-pyridin-2-yl-amino)-methyl]-phenyl}-pyrazin-2-yl)-benzenesulfonamide] |  | 4.51 µM |
| O=S(=O)(Nc1nccnc1-c1ccc(CNc2ccc3c(c2)OCO3)cc1)c1ccccc1C(F)(F)F [Compound 9, N-(3-{4-[(1,3-benzodioxol-5-ylamino)methyl]phenyl}pyrazin-2-yl)-2-(trifluoromethyl)benzenesulfonamide] | 72.5% | 2.98 µM |
| O=S(=O)(Nc1nccnc1-c1ccc(COc2ccc3c(c2)CCCC3)cc1)c1ccccc1Cl [Compound 7, 2-chloro-N-(3-{4-[(5,6,7,8-tetrahydronaphthalen-2-yloxy)methyl]-phenyl}-pyrazin-2-yl)benzenesulfonamide] | 80.0% | 2.59 µM |
| O=S(=O)(Nc1nccnc1-c1ccc(Cn2ccc3cc(F)ccc32)cc1)c1ccccc1Cl [Compound 41, 2-Chloro-N-{3-[4-(5-fluoro-indol-1-ylmethyl)-phenyl]-pyrazin-2-yl}-benzenesulfonamide] |  | 3.9 µM |
| CCc1nc2ccccc2n1Cc1ccc(-c2nccnc2NS(=O)(=O)c2ccccc2Cl)cc1 [Compound 8, 2-chloro-N-(3-{4-[(2-ethyl-1H-benzimidazol-1-yl)methyl]phenyl}pyrazin-2-yl)benzenesulfonamide] | 79.0% | 1.42 µM |
| COc1cccc(COCc2ccc(-c3nccnc3NS(=O)(=O)c3ccccc3C(F)(F)F)cc2)c1 [Compound 10, N-[3-(4-{[(3-methoxybenzyl)oxy]methyl}phenyl)pyrazin-2-yl]-2-(trifluoromethyl)benzenesulfonamide] | 72.0% | 1.4 µM |
| Cc1cc2ccccc2n1Cc1ccc(-c2nccnc2NS(=O)(=O)c2ccccc2Cl)cc1 [Compound 43, 2-Chloro-N-{3-[4-(2-methyl-indol-1-ylmethyl)-phenyl]-pyrazin-2-yl}-benzenesulfonamide] |  | 4.11 µM |

Second part, the compound after the results:

| Inhibition hCRTH2 [%] (CRTH2 [1]) | Ki (CRTH2 [2]) | SMILES |
| --- | --- | --- |
| 53.0% | 5.85 µM | Cc1ccc(S(=O)(=O)Nc2nccnc2-c2ccc(CN(C)c3ccc(OC(F)(F)F)cc3)cc2)cc1 [Compound 14, 4-methyl-N-{3-[4-({methyl[4-(trifluoromethoxy)phenyl]amino}-methyl)phenyl]pyrazin-2-yl}benzenesulfonamide] |
| 84.5% | 1.57 µM | CN(Cc1ccc(-c2nccnc2NS(=O)(=O)c2ccccc2Cl)cc1)c1ccccc1 [Compound 4, 2-chloro-N-[3-(4-{[methyl(phenyl)amino]methyl}phenyl)pyrazin-2-yl]-benzenesulfonamide] |
| 51.0% | 5.38 µM | CN(Cc1ccc(-c2nccnc2NS(=O)(=O)c2ccc(Cl)cc2)cc1)c1ccccc1 [Compound 15, 4-chloro-N-[3-(4-{[methyl(phenyl)amino]methyl}phenyl)pyrazin-2-yl]-benzenesulfonamide] |
| 47.0% | 5.71 µM | CN(Cc1ccc(-c2nccnc2NS(=O)(=O)c2ccc(C#N)cc2)cc1)c1ccc(OC(F)(F)F)cc1 [Compound 16, 4-cyano-N-{3-[4-({methyl[4-(trifluoromethoxy)phenyl]amino}-methyl)phenyl]pyrazin-2-yl}benzenesulfonamide] |
|  | 0.4 µM | CN(Cc1ccc(-c2nccnc2NS(=O)(=O)c2ccccc2C(F)(F)F)cc1)c1ccccc1 [Compound 18, N-(3-{4-[(Methyl-phenyl-amino)-methyl]-phenyl}-pyrazin-2-yl)-2-trifluoromethyl-benzenesulfonamide] |
| 64.5% | 4.03 µM | O=S(=O)(Nc1nccnc1N1CCN(Cc2ccc3ccccc3n2)CC1)c1ccc(Oc2ccccc2)cc1 [Compound 13, 4-phenoxy-N-{3-[4-(quinolin-2-ylmethyl)piperazin-1-yl]pyrazin-2-yl}-benzenesulfonamide] |
| 65.0% | 8.43 µM | CN(Cc1ccc(-c2nccnc2NS(=O)(=O)c2cccs2)cc1)c1ccc(Cl)cc1 [Compound 12, N-[3-(4-{[(4-chlorophenyl)(methyl)amino]methyl}phenyl)pyrazin-2-yl]-thiophene-2-sulfonamide] |
| 82.0% | 2.32 µM | O=S(=O)(Nc1nccnc1-c1ccc(COc2ccc3ccccc3c2)cc1)c1ccccc1Cl [Compound 5, 2-chloro-N-(3-{4-[(2-naphthyloxy)methyl]phenyl}pyrazin-2-yl)benzene-sulfonamide] |
|  | 0.38 µM | CN(Cc1ccc(-c2nccnc2NS(=O)(=O)c2ccccc2C(F)(F)F)cc1)c1ccc(F)cc1 [Compound 17, N-[3-(4-{[(4-Fluoro-phenyl)-methyl-amino]-methyl}-phenyl)-pyrazin-2-yl]-2-trifluoromethyl-benzenesulfonamide] |
| 65.0% | 5.16 µM | CN(Cc1ccc(-c2nccnc2NS(=O)(=O)c2cccc(Cl)c2)cc1)c1ccc(OC(F)(F)F)cc1 [Compound 11, 3-chloro-N-{3-[4-({methyl[4-(trifluoromethoxy)phenyl]amino}methyl)phenyl]pyrazin-2-yl}benzenesulfonamide] |
